Results: patent US9422285B2, “Substituted pyrazolo[1,5-A]-pyridine-3-carboxamides and use thereof” (Bayer Pharma Aktiengesellschaft, priority 2014, dated 2016)
Where a name gives a salt, the structure may show the parent alone.

Molecular target: T1, recombinant guanylate cyclase reporter cell line (Rattus norvegicus, UniProt P19686+P20595)
T1 construct: expressed in transfected cells
T1 sequence (P19686 1-690): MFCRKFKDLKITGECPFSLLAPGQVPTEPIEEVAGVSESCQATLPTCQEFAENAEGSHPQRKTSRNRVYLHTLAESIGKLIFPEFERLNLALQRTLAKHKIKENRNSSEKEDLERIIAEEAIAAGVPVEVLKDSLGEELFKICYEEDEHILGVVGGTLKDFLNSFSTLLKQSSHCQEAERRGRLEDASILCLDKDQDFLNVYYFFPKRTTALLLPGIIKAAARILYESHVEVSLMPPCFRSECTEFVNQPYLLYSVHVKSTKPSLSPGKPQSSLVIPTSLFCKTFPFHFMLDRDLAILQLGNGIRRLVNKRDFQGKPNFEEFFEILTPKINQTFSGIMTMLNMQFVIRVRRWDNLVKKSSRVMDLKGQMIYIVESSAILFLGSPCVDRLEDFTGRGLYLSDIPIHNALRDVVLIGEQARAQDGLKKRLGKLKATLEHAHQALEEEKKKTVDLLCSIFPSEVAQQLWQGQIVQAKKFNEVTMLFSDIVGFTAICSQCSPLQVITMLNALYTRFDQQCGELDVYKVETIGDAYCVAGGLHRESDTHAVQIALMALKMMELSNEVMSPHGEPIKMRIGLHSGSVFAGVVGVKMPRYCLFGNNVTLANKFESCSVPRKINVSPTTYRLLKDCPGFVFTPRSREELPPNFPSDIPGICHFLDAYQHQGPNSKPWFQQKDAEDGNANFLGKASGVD
T1 sequence (P20595 1-619): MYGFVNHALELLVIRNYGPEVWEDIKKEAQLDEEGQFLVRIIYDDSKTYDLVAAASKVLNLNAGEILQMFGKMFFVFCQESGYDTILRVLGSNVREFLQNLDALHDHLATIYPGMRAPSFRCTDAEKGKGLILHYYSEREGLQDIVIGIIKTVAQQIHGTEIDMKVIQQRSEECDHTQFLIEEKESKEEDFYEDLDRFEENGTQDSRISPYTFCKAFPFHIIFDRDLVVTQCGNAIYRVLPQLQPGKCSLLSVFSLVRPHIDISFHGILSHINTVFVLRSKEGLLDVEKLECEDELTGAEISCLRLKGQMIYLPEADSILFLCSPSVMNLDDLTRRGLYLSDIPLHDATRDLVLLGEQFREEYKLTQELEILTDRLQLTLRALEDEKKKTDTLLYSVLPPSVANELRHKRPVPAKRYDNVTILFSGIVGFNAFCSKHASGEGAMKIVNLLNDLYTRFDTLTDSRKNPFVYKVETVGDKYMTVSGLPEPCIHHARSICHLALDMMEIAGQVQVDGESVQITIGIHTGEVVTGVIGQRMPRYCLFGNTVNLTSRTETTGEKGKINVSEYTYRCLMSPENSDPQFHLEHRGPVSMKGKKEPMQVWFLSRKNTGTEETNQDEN
Experiment: Effect on a recombinant guanylate cyclase reporter cell line (B-2)
Type: cell-based
Conditions: in some cases mean values for individual determinations
Method: B-2. Effect on a Recombinant Guanylate Cyclase Reporter Cell Line
The cellular effect of the inventive compounds is determined using a recombinant guanylate cyclase reporter cell line, as described in F. Wunder et al., Anal. Biochem. 339, 104-112 (2005).
Representative MEC values (MEC=minimum effective concentration) for the inventive compounds are shown in the table below (in some cases as mean values for individual determinations): […]

Structure (SMILES)	MEC (minimum effective concentration)
Cc1cc(OCc2c(F)cccc2F)n2nc(C)c(C(=O)NCC3(N)CC3)c2c1 [Example 118, N-[(1-Aminocyclopropyl)methyl]-7-[(2,6-difluorobenzyl)oxy]-2,5-dimethylpyrazolo[1,5-a]pyridine-3-carboxamide]	0.3 µM
CCCC[C@@H](C)NC(=O)c1c(C)nn2c(OCc3c(F)cccc3F)cc(C)cc12 [Example 94, 7-[(2,6-Difluorobenzyl)oxy]-N-[(2R)-hexan-2-yl]-2,5-dimethylpyrazolo[1,5-a]pyridine-3-carboxamide]	1.0 µM
Cc1cc(OCc2c(F)cccc2F)n2nc(C)c(C(=O)NCC3CCC(C#N)CC3)c2c1 (stereo not shown) [Example 62, N-[(4-Cyanocyclohexyl)methyl]-7-[(2,6-difluorobenzyl)oxy]-2,5-dimethylpyrazolo[1,5-a]pyridine-3-carboxamide]	3.0 µM
Cc1cc(OCc2c(F)ccc(F)c2F)n2nc(C)c(C(=O)NCCN(CC(F)F)C3CC3)c2c1 [Example 26, N-{2-[Cyclopropyl(2,2-difluoroethyl)amino]ethyl]-2,5-dimethyl-7-[(2,3,6-trifluorobenzyl)oxy]pyrazolo[1,5-a]pyridine-3-carboxamide]	0.3 µM
CC=CCC(N)CNC(=O)c1c(C)nn2c(OCc3c(F)cccc3F)cc(C)cc12 (racemic) [Example 115, rac-N-[2-Aminohex-4-en-1-yl]-7-[(2,6-difluorobenzyl)oxy]-2,5-dimethylpyrazolo[1,5-a]pyridine-3-carboxamide]	0.3 µM
Cc1cc(OCc2c(F)cccc2F)n2nc(C)c(C(=O)NCC(C)(N)CCCF)c2c1 (single isomer, unassigned) [Example 44, ent-N-(2-Amino-5-fluoro-2-methylpentyl)-7-[(2,6-difluorobenzyl)oxy]-2,5-dimethylpyrazolo[1,5-a]pyridine-3-carboxamide]	0.3 µM
Cc1cc(OCc2c(F)cccc2F)n2nc(C)c(C(=O)NCC(N)CC(F)(F)F)c2c1 (racemic) [Example 107, rac-N-(2-Amino-4,4,4-trifluorobutyl)-7-[(2,6-difluorobenzyl)oxy]-2,5-dimethylpyrazolo[1,5-a]pyridine-3-carboxamide]	3.0 µM
Cc1cc(OCc2c(F)cccc2F)n2nc(C)c(C(=O)NC(CN)c3cccc(Br)c3)c2c1 (racemic) [Example 126, rac-N-[2-Amino-1-(3-bromphenyl)ethyl]-7-[(2,6-difluorobenzyl)oxy]-2,5-dimethylpyrazolo[1,5-a]pyridine-3-carboxamide]	1.0 µM
Cc1cc(OCc2c(F)ccc(F)c2F)n2nc(C)c(C(=O)NC3(c4ccc(Cl)cc4)CCCC3)c2c1 [Example 31, N-[1-(4-Chlorophenyl)cyclopentyl]-2,5-dimethyl-7-[(2,3,6-trifluorobenzyl)oxy]pyrazolo[1,5-a]pyridine-3-carboxamide]	1.0 µM
CCOC(=O)c1cccc(C(CN)NC(=O)c2c(C)nn3c(OCc4c(F)cccc4F)cc(C)cc23)n1 (racemic) [Example 83, rac-Ethyl 6-{2-amino-1-[({7-[(2,6-difluorobenzyl)oxy]-2,5-dimethylpyrazolo[1,5-a]pyridin-3-yl}carbonyl)amino]ethyl} pyridine-2-carboxylate trifluoroacetate]	3.0 µM
Cc1cc(OCc2c(F)cccc2F)n2nc(C)c(C(=O)NCC3CNC(=O)O3)c2c1 (racemic) [Example 100, rac-7-[(2,6-Difluorobenzyl)oxy]-2,5-dimethyl-N-[(2-oxo-1,3-oxazolidin-5-yl)methyl]pyrazolo[1,5-a]pyridine-3-carboxamide]	10 µM
Cc1cc(OCc2c(F)cccc2F)n2nc(C)c(C(=O)NCC(F)(F)CN)c2c1 [Example 81, N-(3-Amino-2,2-difluoropropyl)-7-[(2,6-difluorobenzyl)oxy]-2,5-dimethylpyrazolo[1,5-a]pyridine-3-carboxamide]	1.0 µM
Cc1cc(OCc2c(F)cccc2F)n2nc(C)c(C(=O)NC3c4cccc(F)c4OC3C)c2c1 (stereo not shown) [Example 111, 7-[(2,6-Difluorobenzyl)oxy]-N-(7-fluoro-2-methyl-2,3-dihydro-1-benzofur-3-yl)-2,5-dimethylpyrazolo[1,5-a]pyridine-3-carboxamide]	1.0 µM
Cc1cc(OCc2c(F)cccc2F)n2nc(C)c(C(=O)NC3CC(C)(C)C3N)c2c1 (stereo not shown) [Example 101, N-(2-Amino-3,3-dimethylcyclobutyl)-7-[(2,6-difluorobenzyl)oxy]-2,5-dimethylpyrazolo[1,5-a]pyridine-3-carboxamide]	3.0 µM
Cc1cc(OCc2c(F)cccc2F)n2nc(C3CC3)c(C(=O)NCC(C)(N)CC(F)F)c2c1 (single isomer, unassigned) [Example 57, ent-N-(2-Amino-4,4-difluoro-2-methylbutyl)-2-cyclopropyl-7-[(2,6-difluorobenzyl)oxy]-5-methylpyrazolo[1,5-a]pyridine-3-carboxamide]	0.3 µM
COc1ccc(CC(C)(N)CNC(=O)c2c(C)nn3c(OCc4c(F)cccc4F)cc(C)cc23)cc1 (racemic) [Example 99, rac-N-[2-Amino-3-(4-methoxyphenyl)-2-methylpropyl]-7-[(2,6-difluorobenzyl)oxy]-2,5-dimethylpyrazolo[1,5-a]pyridine-3-carboxamide]	0.1 µM
Cc1cc(OCc2c(F)cccc2F)n2nc(C)c(C(=O)NCC(C)(N)CCC(F)(F)F)c2c1 (single isomer, unassigned) [Example 42, ent-N-(2-Amino-5,5,5-trifluoro-2-methylpentyl)-7-[(2,6-difluorobenzyl)oxy]-2,5-dimethylpyrazolo[1,5-a]pyridine-3-carboxamide]	0.3 µM
Cc1cc(OCc2c(F)cccc2F)n2nc(C)c(C(=O)NNC3CCCC3O)c2c1 (stereo not shown) [Example 68, 7-[(2,6-Difluorobenzyl)oxy]-N′-(2-hydroxycyclopentyl)-2,5-dimethylpyrazolo[1,5-a]pyridine-3-carbohydrazide trifluoroacetate]	10 µM
Cc1cc(OCc2c(F)cccc2F)n2nc(C)c(C(=O)NC3CCOc4c(Cl)cccc43)c2c1 (racemic) [Example 147, rac-N-(8-Chloro-3,4-dihydro-2H-chromen-4-yl)-7-[(2,6-difluorobenzyl)oxy]-2,5-dimethylpyrazolo[1,5-a]pyridine-3-carboxamide]	0.3 µM
Cc1cc(OCc2c(F)cccc2F)n2nc(C)c(C(=O)N[C@H]3CCNC3=O)c2c1 [Example 149, 7-[(2,6-Difluorobenzyl)oxy]-2,5-dimethyl-N-[(3S)-2-oxopyrrolidin-3-yl]pyrazolo[1,5-a]pyridine-3-carboxamide]	1.0 µM
Cc1cc(OCc2c(F)cccc2F)n2nc(C)c(C(=O)NC3CCOc4ncccc43)c2c1 (racemic) [Example 74, rac-7-[(2,6-Difluorobenzyl)oxy]-N-(3,4-dihydro-2H-pyrano[2,3-b]pyridin-4-yl)-2,5-dimethylpyrazolo[1,5-a]pyridine-3-carboxamide trifluoroacetate]	0.03 µM
CCC(C)(N)CNC(=O)c1c(C)nn2c(OCc3c(F)ccc(F)c3F)cc(C)cc12 (single isomer, unassigned) [Example 3, ent-N-(2-Amino-2-methylbutyl)-2,5-dimethyl-7-[(2,3,6-trifluorobenzyl)oxy]pyrazolo[1,5-a]pyridine-3-carboxamide]	0.3 µM
